Among the data in patent US20250129078A1, “ERBB2 INHIBITORS” (Cogent Biosciences, Inc., priority 2023, published 2025) are IC50 values, retold here.

The structures appear in SMILES notation. Structures can show the parent of a compound that is named as a salt.

Assay [1] addresses ErbB2 V777L (Homo sapiens (Human), UniProt P04626, V777L). The assay is described as follows: ErbB enzyme assay (CisBio HTRF-KinEASE-TK), ErbB2 V777L. Format: biochemical. On the procedure: In vitro enzyme assays based on CisBio HTRF-KinEASE-TK technology were used to determine compound potencies. […] After another 1 h incubation at ambient temperature, the extent of substrate phosphorylation was determined using a PerkinElmer EnVision multimode plate reader via time-resolved fluorescence dual wavelength detection. The percent of control (POC) was calculated using the ratio of emission at […] to the emission at 620 nm. One hundred POC was determined using DMSO only controls (no test compounds present) and zero POC was determined using pre-quenched controls reactions. A 4-parameter logistic equation was fit to the POC values as a function of the test compound concentration and the IC50 value was determined as the point where the curve crossed 50 POC.
On the technique in general: Time-resolved FRET reads energy transfer from a long-lived donor to a nearby acceptor.

Assay [2] deals with EGFR WT (Homo sapiens (Human), UniProt P00533). In words: ErbB enzyme assay (CisBio HTRF-KinEASE-TK), EGFR WT. Format: biochemical. Particulars: ATP at Km (25 μM), 1 h incubation. The method in brief:
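IC50 comes from a 4-parameter fit where the curve crosses 50 percent of control, using the 655/620 nm time-resolved fluorescence ratio with DMSO-only and pre-quenched references. Kinase reactions ran 1 h at ambient temperature before Sa-XL665/cryptate-antibody detection (1 h).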

Sequence of ErbB2 V777L (P04626 23-1255 V777L): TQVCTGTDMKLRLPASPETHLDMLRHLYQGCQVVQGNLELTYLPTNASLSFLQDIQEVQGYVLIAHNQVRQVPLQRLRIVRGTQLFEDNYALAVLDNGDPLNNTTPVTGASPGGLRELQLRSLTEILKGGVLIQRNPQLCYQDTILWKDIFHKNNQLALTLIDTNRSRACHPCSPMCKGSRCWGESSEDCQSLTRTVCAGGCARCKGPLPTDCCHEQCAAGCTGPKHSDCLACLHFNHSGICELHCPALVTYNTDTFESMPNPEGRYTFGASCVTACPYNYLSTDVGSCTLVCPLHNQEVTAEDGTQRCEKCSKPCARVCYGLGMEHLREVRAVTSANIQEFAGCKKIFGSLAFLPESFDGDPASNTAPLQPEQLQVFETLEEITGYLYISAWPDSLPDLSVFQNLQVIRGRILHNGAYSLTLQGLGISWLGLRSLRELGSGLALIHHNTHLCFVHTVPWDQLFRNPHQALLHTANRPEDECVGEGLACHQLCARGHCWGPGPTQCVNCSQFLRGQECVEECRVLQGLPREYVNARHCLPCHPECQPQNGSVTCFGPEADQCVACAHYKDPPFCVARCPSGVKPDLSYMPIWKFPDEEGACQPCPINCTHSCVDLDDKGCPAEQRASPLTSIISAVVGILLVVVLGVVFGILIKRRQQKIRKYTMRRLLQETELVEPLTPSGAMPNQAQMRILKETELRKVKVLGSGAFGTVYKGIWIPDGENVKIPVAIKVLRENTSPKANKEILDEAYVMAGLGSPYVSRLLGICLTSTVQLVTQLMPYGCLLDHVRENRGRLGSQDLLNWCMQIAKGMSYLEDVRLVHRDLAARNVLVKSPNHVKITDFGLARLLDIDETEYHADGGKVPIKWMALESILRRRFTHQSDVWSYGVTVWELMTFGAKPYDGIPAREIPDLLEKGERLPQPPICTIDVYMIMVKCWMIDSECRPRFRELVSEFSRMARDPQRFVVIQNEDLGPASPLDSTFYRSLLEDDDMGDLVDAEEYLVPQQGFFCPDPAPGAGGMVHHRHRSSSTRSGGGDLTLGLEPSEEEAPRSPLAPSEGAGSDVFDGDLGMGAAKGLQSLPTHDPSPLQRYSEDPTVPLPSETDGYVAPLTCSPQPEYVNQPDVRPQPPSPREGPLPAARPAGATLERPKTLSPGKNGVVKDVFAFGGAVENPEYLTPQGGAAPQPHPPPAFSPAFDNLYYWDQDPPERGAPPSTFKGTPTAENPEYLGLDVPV
Sequence of EGFR WT (P00533 25-1210): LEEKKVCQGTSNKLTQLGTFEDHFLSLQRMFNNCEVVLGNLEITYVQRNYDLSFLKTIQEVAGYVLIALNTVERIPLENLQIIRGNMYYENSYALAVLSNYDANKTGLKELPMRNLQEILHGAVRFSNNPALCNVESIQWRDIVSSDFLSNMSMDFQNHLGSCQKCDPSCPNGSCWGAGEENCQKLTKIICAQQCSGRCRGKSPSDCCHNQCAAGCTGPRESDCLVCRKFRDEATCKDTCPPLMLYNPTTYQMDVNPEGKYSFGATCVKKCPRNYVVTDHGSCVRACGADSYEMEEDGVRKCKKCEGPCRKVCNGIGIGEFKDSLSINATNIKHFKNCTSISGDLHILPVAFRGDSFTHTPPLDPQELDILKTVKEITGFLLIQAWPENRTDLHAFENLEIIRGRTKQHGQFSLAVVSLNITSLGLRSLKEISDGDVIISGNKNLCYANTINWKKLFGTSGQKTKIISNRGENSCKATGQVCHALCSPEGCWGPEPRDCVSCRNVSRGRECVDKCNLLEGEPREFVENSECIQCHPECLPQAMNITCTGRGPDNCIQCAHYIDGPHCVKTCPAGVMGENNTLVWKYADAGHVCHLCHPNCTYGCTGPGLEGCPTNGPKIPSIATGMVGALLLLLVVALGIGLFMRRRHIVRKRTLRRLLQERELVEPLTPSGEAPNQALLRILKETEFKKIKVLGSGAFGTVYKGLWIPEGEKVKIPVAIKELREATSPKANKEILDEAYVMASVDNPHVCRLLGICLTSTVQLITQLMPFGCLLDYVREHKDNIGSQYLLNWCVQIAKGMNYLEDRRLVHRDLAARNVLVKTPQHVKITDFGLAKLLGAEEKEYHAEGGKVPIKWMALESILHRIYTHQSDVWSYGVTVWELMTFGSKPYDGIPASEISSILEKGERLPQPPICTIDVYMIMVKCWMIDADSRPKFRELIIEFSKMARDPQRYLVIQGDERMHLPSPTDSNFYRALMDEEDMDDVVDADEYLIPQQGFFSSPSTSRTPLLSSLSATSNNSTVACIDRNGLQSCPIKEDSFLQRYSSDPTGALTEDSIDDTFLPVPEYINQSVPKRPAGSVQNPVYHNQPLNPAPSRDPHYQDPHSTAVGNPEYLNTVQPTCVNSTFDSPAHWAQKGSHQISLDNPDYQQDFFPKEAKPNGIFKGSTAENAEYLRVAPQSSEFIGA

In general, IC50 refers to the concentration that gives 50% inhibition. Lower therefore signals greater potency. For the compound `C=CC(=O)N1C[C@@H](C)N(c2ncc3ncnc(Nc4ccc(Oc5ccc6c(c5)nnn6C)c(C)c4)c3n2)C[C@H]1C` [Compound 186, 1-((2R,5R)-2,5-dimethyl-4-(8-((3-methyl-4-((1-methyl-1H-benzo[d][1,2,3]triazol-5-yl)oxy)phenyl)amino)pyrimido[5,4-d]pyrimidin-2-yl)piperazin-1-yl)prop-2-en-1-one], the IC50 in assay [1] is 0.1 to 0.5 µM; in assay [2] it was at least 1 µM.

Take `C=CC(=O)N1[C@@H]2COC[C@H]1CN(c1ncc3ncnc(Nc4ccc(Oc5ccc6c(c5)nnn6C)c(C)c4)c3n1)C2` [Compound 140, 1-((1R,5S)-7-(8-((3-methyl-4-((1-methyl-1H-benzo[d][1,2,3]triazol-5-yl)oxy)phenyl)amino)pyrimido [5,4-d]pyrimidin-2-yl)-3-oxa-7,9-diazabicyclo[3.3.1]nonan-9-yl)prop-2-en-1-one]: the IC50 lay within 0.05 to 0.1 µM in assay [1] and 0.1 to 0.5 µM in assay [2].

Regarding `C=CC(=O)N1CCN(c2ncc3ncnc(Nc4ccc(Oc5ccc6c(c5)nnn6C)c(OC)c4F)c3n2)CC1` [Compound 45, 1-(4-(8-((2-fluoro-3-methoxy-4-((1-methyl-1H-benzo[d][1,2,3]triazol-5-yl)oxy)phenyl)amino)pyrimido [5,4-d]pyrimidin-2-yl)piperazin-1-yl)prop-2-en-1-one], the half-inhibitory concentration (IC50) in assay [1] and in assay [2] was 0.1 to 0.5 µM in each case.

For the compound `C=CC(=O)N(C)[C@H]1CCCN(c2ncc3ncnc(Nc4ccc(Oc5ccc6c(c5)nnn6C)c(C)c4)c3n2)C1` [Compound 127, (S)-N-methyl-N-(1-(8-((3-methyl-4-((1-methyl-1H-benzo[d][1,2,3]triazol-5-yl)oxy)phenyl)amino)pyrimido[5,4-d]pyrimidin-2-y1)piperidin-3-yl)acrylamide], the values for the IC50 in assay [1] and in assay [2] were 0.1 to 0.5 µM and 0.5 to 1 µM, respectively.

In the case of `Cc1cc(Nc2ncnc3cnc(N4CCN(C(=O)/C=C/CN5CCOCC5)CC4)nc23)ccc1Oc1ccc2c(c1)nnn2C` [Compound 53, (E)-1-(4-(8-((3-methyl-4-((1-methyl-1H-benzo[d][1,2,3]triazol-5-yl)oxy)phenyl)amino)pyrimido [5,4-d]pyrimidin-2-yl)piperazin-1-yl)-4-morpholinobut-2-en-1-one formate], the IC50 in assay [1] and in assay [2] was 0.1 to 0.5 µM throughout.

Take `C=CC(=O)N1CCN(c2ccc3ncnc(Nc4cc(C)c(Oc5ccc6c(c5)nnn6C)cc4OC(F)(F)F)c3n2)CC1` [Compound 312, 1-(4-(4-((5-methyl-4-((1-methyl-1H-benzo[d][1,2,3]triazol-5-yl)oxy)-2-(trifluoromethoxy)phenyl)amino)py-rido[3,2-d]pyrimidin-6-yl)piperazin-1-yl)prop-2-en-1-one]: the 50% inhibitory concentration (IC50) in assay [1] and in assay [2] was 0.1 to 0.5 µM each time.

For `C=CC(=O)N1CCN(c2ncc3ncnc(Nc4ccc(Oc5cc6nnn(C)c6cn5)c(C)c4)c3n2)CC1` [Compound 132, 1-(4-(8-((3-methyl-4-((3-methyl-3H-[1,2,3]triazolo[4,5-c]pyridin-6-yl)oxy)phenyl)amino)pyrimido[5,4-d]pyrimidin-2-yl)piperazin-1-yl)prop-2-en-1-one], the IC50 in assay [1] and in assay [2] was 0.1 to 0.5 µM in each case.

Take `C=CC(=O)N1CCN(c2ccc3ncnc(Nc4ccc(Oc5ccc6c(c5)nnn6C)c(C)c4F)c3n2)C[C@H]1CC` [Compound 258, (R)-1-(2-ethyl-4-(4-((2-fluoro-3-methyl-4-((1-methyl-1H-benzo[d][1,2,3]triazol-5-yl)oxy)phenyl)amino)pyrido[3,2-d]pyrimidin-6-yl)piperazin-1-yl)prop-2-en-1-one]: the IC50 in assay [1] and in assay [2] was 0.1 to 0.5 µM each time.

`C=CC(=O)N1CCCN(c2ccc3ncnc(Nc4ccc(Oc5ccc6c(c5)nnn6C)c(C)c4)c3n2)C[C@@H]1C` [Compound 284, (S)-1-(2-methyl-4-(4-((3-methyl-4-((1-methyl-1H-benzo[d][1,2,3]triazol-5-yl)oxy)phenyl)amino)pyrido[3,2-d]pyrimidin-6-yl)-1,4-diazepan-1-yl)prop-2-en-1-one]: the 50% inhibitory concentration (IC50) is 0.5 to 1 µM in assay [1] and at least 1 µM in assay [2].

`C=CC(=O)N[C@@H]1CCCN(c2ccc3ncnc(Nc4ccc(Oc5ccc6c(c5)nnn6C)c(C)c4F)c3n2)[C@H]1C` (single isomer, unassigned) [Compound 349]: the 50% inhibitory concentration (IC50) in assay [1] lay in the range of 0.05 to 0.1 µM; in assay [2], 0.1 to 0.5 µM.

For `C=CC(=O)N1CCN(c2ncc3ncnc(Nc4ccc(Oc5ccc6c(c5)nnn6C)c(C)c4)c3n2)C[C@H]1CC` [Compound 119, (R)-1-(2-ethyl-4-(8-((3-methyl-4-((1-methyl-1H-benzo[d][1,2,3]triazol-5-yl)oxy)phenyl)amino)pyrimido[5,4-d]pyrimidin-2-y1)piperazin-1-yl)prop-2-en-1-one], the IC50 in assay [1] lay in the range of 0.1 to 0.5 µM; in assay [2] it was 0.5 to 1 µM.

`C=CC(=O)N1CCN(c2ccc3ncnc(Nc4ccc(Oc5ccc6c(c5)ncn6C(F)F)c(C)c4F)c3n2)CC1(C)C` [Compound 321, 1-(4-(4-((4-((1-(difluoromethyl)-1H-benzo[d]imidazol-5-yl)oxy)-2-fluoro-3-methylphenyl)amino)pyrido[3,2-d]pyrimidin-6-y1)-2,2-dimethylpiperazin-1-yl)prop-2-en-1-one]: the IC50 in assay [1] was 0.1 to 0.5 µM; in assay [2] it was 0.5 to 1 µM.

Take `C=CC(=O)N1CCN(c2ccc3ncnc(Nc4cc(C)c(Oc5ccc6c(c5)nnn6C)cc4OC(F)F)c3n2)CC1` [Compound 315, 1-(4-(4-((2-(difluoromethoxy)-5-methyl-4-((1-methyl-1H-benzo[d][1,2,3]triazol-5-yl)oxy)phenyl)amino)pyrido[3,2-d]pyrimidin-6-yl)piperazin-1-yl)prop-2-en-1-one]: the IC50 in assay [1] is 0.05 to 0.1 µM; in assay [2], 0.1 to 0.5 µM.

As to `C=CC(=O)N1CCN(c2ccc3ncnc(Nc4ccc(Oc5cc(F)c6c(c5)nnn6C)c(C)c4)c3n2)C[C@@H]1C1CC1` [Compound 290, (S)-1-(2-cyclopropyl-4-(4-((4-((7-fluoro-1-methyl-1H-benzo[d][1,2,3]triazol-5-yl)oxy)-3-methylphenyl)amino)pyrido[3,2-d]pyrimidin-6-yl)piperazin-1-yl)prop-2-en-1-one], the concentration for half-maximal inhibition (IC50) fell in the range of 0.1 to 0.5 µM in assay [1] and 0.5 to 1 µM in assay [2].

With `C=CC(=O)N1CCN(c2ncc3ncnc(Nc4cc(C)c(Oc5ccc6c(c5)nnn6C)c(Cl)c4)c3n2)C[C@H]1C` [Compound 151, (R)-1-(4-(8-((3-chloro-5-methyl-4-((1-methyl-1H-benzo[d][1,2,3]triazol-5-yl)oxy)phenyl)amino)pyrimido[5,4-d]pyrimidin-2-yl)-2-methylpiperazin-1-yl)prop-2-en-1-one], the IC50 in assay [1] and in assay [2] was 0.1 to 0.5 µM each time.

Take `C=CC(=O)N1CCN(c2ncc3ncnc(Nc4ccc(Oc5ccc6c(c5)nnn6C)c(C)c4F)c3n2)CC1(C)C` [Compound 32, 1-(4-(8-((2-fluoro-3-methyl-4-((1-methyl-1H-benzo[d][1,2,3]triazol-5-yl)oxy)phenyl)amino)pyrimido [5,4-d]pyrimidin-2-yl)-2,2-dimethylpiperazin-1-yl)prop-2-en-1-one]: the IC50 in assay [1] and in assay [2] was 0.1 to 0.5 µM each time.

As to `C=CC(=O)N1CCN(c2ncc3ncnc(Nc4ccc(Oc5ccc6c(c5)nnn6C)c(C)c4)c3n2)[C@@H]2CC[C@H]21` [Compound 189, 1-((1R,6R)-5-(8-((3-methyl-4-((1-methyl-1H-benzo[d][1,2,3]triazol-5-yl)oxy)phenyl)amino)pyrimido[5,4-d]pyrimidin-2-y1)-2,5-diazabicyclo[4.2.0]octan-2-yl)prop-2-en-1-one], the IC50 in assay [1] was 0.1 to 0.5 µM; in assay [2] it was 0.5 to 1 µM.

Turning to `C=CC(=O)N1CCN(c2ncc3ncnc(Nc4ccc(Oc5ccc6c(c5)nnn6CC)c(C)c4)c3n2)CC1` [Compound 133, 1-(4-(8-((4-((1-ethyl-1H-benzo[d][1,2,3]triazol-5-yl)oxy)-3-methylphenyl)amino)pyrimido[5,4-d]pyrimidin-2-y1)piperazin-1-yl)prop-2-en-1-one], the results for the IC50 in assay [1] and in assay [2] were 0.1 to 0.5 µM and 0.5 to 1 µM, respectively.

Regarding `C=CC(=O)N1CCN(c2ncc3ncnc(Nc4c(OC)cc(Oc5ccc6c(c5)nnn6C)c(C)c4F)c3n2)CC1` [Compound 138, 1-(4-(8-((2-fluoro-6-methoxy-3-methyl-4-((1-methyl-1H-benzo[d][1,2,3]triazol-5-yl)oxy)phenyl)amino)pyrimido[5,4-d]pyrimidin-2-yl)piperazin-1-yl)prop-2-en-1-one], the concentration for half-maximal inhibition (IC50) in assay [1] and in assay [2] was 0.1 to 0.5 µM throughout.

Consider `C=CC(=O)NC1(C(F)(F)F)CCN(c2ccc3ncnc(Nc4ccc(Oc5ccc6c(c5)nnn6C)c(C)c4F)c3n2)CC1` [Compound 345, N-(1-(4-((2-fluoro-3-methyl-4-((1-methyl-1H-benzo[d][1,2,3]triazol-5-yl)oxy)phenyl)amino)pyrido[3,2-d]pyrimidin-6-yl)-4-(trifluoromethyl)piperidin-4-yl)acrylamide], for which the concentration for half-maximal inhibition (IC50) in assay [1] and in assay [2] was 0.1 to 0.5 µM each time.

Take `C=CC(=O)N[C@@H]1CCCN(c2ccc3ncnc(Nc4ccc(Oc5ccc6c(c5)nnn6C)c(C)c4F)c3n2)C1` [Compound 260, (R)-N-(1-(4-((2-fluoro-3-methyl-4-((1-methyl-1H-benzo[d][1,2,3]triazol-5-yl)oxy)phenyl)amino)pyrido[3,2-d]pyrimidin-6-yl)piperidin-3-yl)acrylamide]: the IC50 in assay [1] and in assay [2] was 0.1 to 0.5 µM in each case.
